Measurements as given in ChEMBL document CHEMBL3286112, “Novel aza-analogous ergoline derived scaffolds as potent serotonin 5-HT₆ and dopamine D₂ receptor ligands” (J Med Chem, 2014).
Activity calls are given as the source filed them. The calls are words filed in the database; no cut-off is given here.

Tests used:
[1] = molecular target: T1, 5-hydroxytryptamine receptor 2C (Homo sapiens, UniProt P28335); experiment: Displacement of [3H]mesulergine from human 5-HT2C receptor expressed in human tsA201 cells after 1 hr by scintillation counting analysis; assay type: cell-based
T1 sequence (P28335 whole entry): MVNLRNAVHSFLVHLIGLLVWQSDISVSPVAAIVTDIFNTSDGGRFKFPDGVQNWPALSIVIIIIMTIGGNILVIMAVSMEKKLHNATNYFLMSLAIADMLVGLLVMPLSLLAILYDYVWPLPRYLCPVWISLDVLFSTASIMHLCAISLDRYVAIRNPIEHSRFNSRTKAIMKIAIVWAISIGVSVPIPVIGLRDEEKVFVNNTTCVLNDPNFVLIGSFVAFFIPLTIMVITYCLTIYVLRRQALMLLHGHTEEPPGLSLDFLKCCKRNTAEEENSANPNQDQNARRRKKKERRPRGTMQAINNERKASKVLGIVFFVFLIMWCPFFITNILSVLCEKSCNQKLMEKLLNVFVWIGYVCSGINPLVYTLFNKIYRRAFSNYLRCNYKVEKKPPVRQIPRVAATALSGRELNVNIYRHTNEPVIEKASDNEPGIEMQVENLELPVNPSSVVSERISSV

[2] = molecular target: T2, 5-hydroxytryptamine receptor 6 (Homo sapiens, UniProt P50406); experiment: Displacement of [3H]LSD from human 5-HT6 receptor expressed in hamster BHK cells after 60 mins by scintillation counting analysis; assay type: cell-based
[3] = molecular target: T2, 5-hydroxytryptamine receptor 6; experiment: Antagonist activity at human 5-HT6 receptor expressed in CHO cells assessed as reduction in serotonin-induced cAMP accumulation after 30 mins by HTRF assay; assay type: functional, cell-based
[4] = tested on: tsA201; experiment: Selectivity ratio of Ki for human 5-HT2C receptor expressed in human tsA201 cells to Ki for human 5-HT6 receptor expressed in hamster BHK cells; assay type: cell-based
[5] = Clearance in human; assay type: ADME, organism-based; conditions: in vivo
[6] = molecular target: T2, 5-hydroxytryptamine receptor 6; experiment: Displacement of [3H]LSD from human 5-HT6 receptor expressed in human HeLa cells after 1 hr by scintillation spectroscopic analysis; assay type: cell-based
[7] = molecular target: T3, D(2) dopamine receptor (Homo sapiens, UniProt P14416); experiment: Displacement of [3H]raclopride from human dopamine D2L receptor expressed in CHOK1a cell membrane after 180 mins by scintillation counting analysis; assay type: cell membranes
[8] = molecular target: T3, D(2) dopamine receptor; experiment: Intrinsic activity at human dopamine D2L receptor expressed in CHOK1a cell membrane assessed as [125I]-cAMP accumulation after 20 mins; assay type: functional, cell-based
[9] = molecular target: T1, 5-hydroxytryptamine receptor 2C; experiment: Displacement of [3H]5-HT from 5-HT2C receptor (unknown origin) expressed in hamster AV12 cells; assay type: cell-based

T3 sequence (P14416 whole entry): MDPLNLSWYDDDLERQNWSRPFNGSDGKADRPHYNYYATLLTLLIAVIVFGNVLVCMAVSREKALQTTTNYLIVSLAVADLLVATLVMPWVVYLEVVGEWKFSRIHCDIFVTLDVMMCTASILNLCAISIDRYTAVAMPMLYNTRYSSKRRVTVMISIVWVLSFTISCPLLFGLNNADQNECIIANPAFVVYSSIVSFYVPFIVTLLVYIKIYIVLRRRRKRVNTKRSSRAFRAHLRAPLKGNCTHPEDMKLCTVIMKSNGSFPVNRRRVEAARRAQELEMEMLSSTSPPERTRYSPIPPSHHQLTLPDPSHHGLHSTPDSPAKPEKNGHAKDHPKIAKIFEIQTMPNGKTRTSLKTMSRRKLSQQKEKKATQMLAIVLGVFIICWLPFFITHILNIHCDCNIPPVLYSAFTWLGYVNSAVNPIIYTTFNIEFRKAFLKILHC
T2 sequence (P50406 whole entry): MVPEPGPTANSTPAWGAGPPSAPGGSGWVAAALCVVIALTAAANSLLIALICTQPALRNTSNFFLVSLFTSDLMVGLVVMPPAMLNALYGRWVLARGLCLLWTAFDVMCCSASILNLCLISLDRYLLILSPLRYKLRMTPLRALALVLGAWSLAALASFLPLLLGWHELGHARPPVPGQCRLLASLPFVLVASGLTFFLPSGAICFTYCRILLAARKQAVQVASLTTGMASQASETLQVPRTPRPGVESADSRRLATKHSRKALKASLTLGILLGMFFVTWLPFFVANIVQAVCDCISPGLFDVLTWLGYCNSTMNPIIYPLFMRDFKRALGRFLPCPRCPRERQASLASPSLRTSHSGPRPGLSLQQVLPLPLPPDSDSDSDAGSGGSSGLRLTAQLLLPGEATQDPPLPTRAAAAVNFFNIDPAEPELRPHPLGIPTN

| SMILES | Ki [1] | Ki [2] | Ki ([7]; read-out: Ki) | further results |
| --- | --- | --- | --- | --- |
| Cc1ccccc1S(=O)(=O)n1cc2c3c(cccc31)N1CCNCC1C2 (configuration not stated) | 470 nM | 21 nM |  |  |
| O=S(=O)(c1cccc(F)c1)n1cc2c3c(cccc31)N1CCNCC1C2 (configuration not stated) | 240 nM | 0.75 nM |  | Activity [3]: Active; Ratio Ki [4]: 250; clearance [5]: 13.3 mL/min/kg |
| COc1ccc(S(=O)(=O)n2cc3c4c(cccc42)N2CCNCC2C3)cc1 (configuration not stated) | 2900 nM | 168 nM |  |  |
| O=S(=O)(c1ccc(Cl)cc1)n1cc2c3c(cccc31)N1CCNCC1C2 (configuration not stated) | 1200 nM | 184 nM |  |  |
| COc1ccccc1S(=O)(=O)n1cc2c3c(cccc31)N1CCNCC1C2 (configuration not stated) | 870 nM | 26 nM |  |  |
| CN1C[C@@H](NS(=O)(=O)N(C)C)C[C@@H]2c3cccc4c3c(cn4C)C[C@H]21 [MESULERGINE] |  |  |  | Ki ([6]; read-out: Ki): 776 nM |
| CC(C)CCN1CCN2c3cccc4[nH]cc(c34)CC2C1 (configuration not stated) |  |  | 24 nM | Intrinsic activity [8]: 96 |
| CN1CCN2c3cccc4[nH]cc(c34)CC2C1 (configuration not stated) |  |  | 660 nM |  |
| COc1ccc(NS(=O)(=O)c2sc3ccc(Cl)cc3c2C)cc1N1CCNCC1 |  |  |  | Ki [9]: 770 nM |
| CC(C)CN1CCN2c3cccc4[nH]cc(c34)CC2C1 (configuration not stated) |  |  | 310 nM |  |
| Cc1cccc(S(=O)(=O)n2cc3c4c(cccc42)N2CCNCC2C3)c1 (configuration not stated) | 460 nM | 24 nM |  |  |
| O=S(=O)(c1cccc(Cl)c1)n1cc2c3c(cccc31)N1CCNCC1C2 (configuration not stated) | 340 nM | 47 nM |  |  |
| c1ccc(-c2ccccc2CN2CCN3c4cccc5[nH]cc(c45)CC3C2)cc1 (configuration not stated) |  |  | 450 nM | Ki ([7]; read-out: pKi (converted)): 200 nM |
| c1ccc(CN2CCN3c4cccc5[nH]cc(c45)CC3C2)cc1 (configuration not stated) |  |  | 130 nM | Intrinsic activity [8]: 51 |
| O=S(=O)(c1ccccc1F)n1cc2c3c(cccc31)N1CCNCC1C2 (configuration not stated) | 350 nM |  |  |  |
| CCCCN1CCN2c3cccc4[nH]cc(c34)CC2C1 (configuration not stated) |  |  | 110 nM |  |

| SMILES | Ki [1] | Ki [2] | Ki ([7]; read-out: Ki) | further results |
| --- | --- | --- | --- | --- |
| CCCCCN1CCN2c3cccc4[nH]cc(c34)CC2C1 (configuration not stated) |  |  | 98 nM |  |
| CCCN1CCN2c3cccc4[nH]cc(c34)CC2C1 (configuration not stated) |  |  | 570 nM |  |
| CNc1cc(NS(=O)(=O)c2ccc(N)cc2)cc(NC)n1 |  |  |  | Ki ([6]; read-out: pKi (converted)): 12.3 nM |
| O=S(=O)(c1ccccc1)c1cnc2c(N3CCNCC3)cccc2c1 |  |  |  | Activity [3]: Active |
| c1cc2c3c(c[nH]c3c1)CC1CNCCN21 (configuration not stated) |  |  | 2100 nM |  |
| CCN1CCN2c3cccc4[nH]cc(c34)CC2C1 (configuration not stated) |  |  | 140 nM |  |
| Cc1ccc(S(=O)(=O)n2cc3c4c(cccc42)N2CCNCC2C3)cc1 (configuration not stated) | 780 nM | 96 nM |  |  |
| COc1cccc(S(=O)(=O)n2cc3c4c(cccc42)N2CCNCC2C3)c1 (configuration not stated) | 370 nM | 24 nM |  |  |
| c1ccc(-c2cccc(CN3CCN4c5cccc6[nH]cc(c56)CC4C3)c2)cc1 (configuration not stated) |  |  | 0.65 nM | Ki ([7]; read-out: pKi (converted)): 0.229 nM; Intrinsic activity [8]: 35; clearance [5]: 65 mL/min/kg |
| O=S(=O)(c1ccccc1Cl)n1cc2c3c(cccc31)N1CCNCC1C2 (configuration not stated) | 460 nM |  |  |  |
| Fc1ccc2c(CCNCc3cccc(OCC(F)(F)C(F)F)c3)c[nH]c2c1 [IDALOPIRDINE] |  |  |  | Ki [9]: 250 nM |
| O=S(=O)(c1ccc(F)cc1)n1cc2c3c(cccc31)N1CCNCC1C2 (configuration not stated) | 1100 nM | 29 nM |  |  |
| c1ccc(-c2ccc(CN3CCN4c5cccc6[nH]cc(c56)CC4C3)cc2)cc1 (configuration not stated) |  |  | 140 nM |  |
| O=S(=O)(c1ccccc1)n1cc2c3c(cccc31)N1CCNCC1C2 (configuration not stated) | 280 nM | 9 nM |  |  |
| c1cc2c3c(c[nH]c3c1)CC1CN(CC3CCCCC3)CCN21 (configuration not stated) |  |  | 54 nM | Intrinsic activity [8]: 95 |
